# Data: patent US20230250433A1, “METHODS AND COMPOSITIONS FOR TREATMENT OF APC-DEFICIENT CANCER” (Board of Regents, The University of Texas System, priority 2020, published 2023)
# What was measured:
# [1] = test system: APC-WT and APC-KO MC38 cells; test: Cell viability assay with STF-31; type: cell-based, mouse; conditions: STF-31 24 hr, dose-dependent
# [2] = test system: Caco-2, DLD-1, and HCT-15 cell lines; test: Immunoblot for TDO2 and β-catenin in CRC cell lines treated with XAV-939; type: cell-based, human; conditions: XAV-939 in a dose-dependent manner; WNT activity indicated by reduced level of β-catenin
# Experimental: The motif sequence is conserved in human and mouse genes. […] GAPDH as a negative control and MYC and AXIN2 as positive controls. […] FIGS. 3K-3M show immunoblot for TDO2 and β-catenin in DLD-1 cells (FIG. 3K), Caco-2 cells (FIG. 3L), and HCT-15 cells (FIG. 3M) treated with XAV-939 in a dose-dependent manner.
# Thus, APC loss induced activation of the WNT-betacatenin-TCF4 pathway resulting in TCF4-mediated upregulation of TDO2 gene transcription.
# (§1) Cell lysates were prepared with RIPA lysis buffer (Roche) with protease inhibitor […] Immunoblotting was performed following standard protocol. Antibodies were purchased from the indicated companies.
# [3] = test system: Raw264.7; test: Transwell migration assay of macrophages in conditioned media; type: cell-based, mouse; conditions: co-treatment with CXCL5; SX-682 1 μM, 36 hr
# Experimental: Two-way ANOVA analysis. […] Dox food was applied at day 5 post-orthotopic injection to induce TDO2 knockdown in vivo. n=4 per group. n.s.P>0.05, *P<0.05, […], ****P<0.0001. two-tailed t-test. […] FIGS. 12D and 12E show quantification of macrophages (F4/80+; FIG. 12D) and M2 macrophages (CD206+; FIG. 12E) in tumors shown in FIG. 12C. CyTOF data analyzed by FlowJo. Data represent mean±s.d., n=3 per group. *P<0.05, **P<0.01. two-tailed t-test. […] Recombinant CXCL5 protein (50 ng) and SX-682 (1 μM) were added to harvested condition media for 36 hr. Scale bar, 100 μm. n=3 biological replicates. Quantification is shown in lower panel. n.s. P>0.05, ***P<0.001, ****P<0.0001. two-tailed t-test. […] Clondronate liposomes or control encapsome liposomes were given intraperitoneally (100 μl) at day 2 post-orthotopic injection and three times a week. […]
# Macrophages (1×10^4 for Raw264.7 and BMDM) were suspended in serum-free culture medium and seeded into 24-well Transwell inserts ([…]). […] After 24 h, the migrated macrophages were fixed and stained with crystal violet (0.05%, sigma), and then counted as cells per field of view under microscope or measured as OD590 nm (expressed as migration index) after crystal violet was dissolved.
# [4] = test system: APC-WT and APC-KO MC38 cell lines; test: Crystal violet staining of APC-WT and APC-KO MC38 cell lines after 680C91; type: cell-based, mouse; conditions: APC-KO vs APC-WT MC38, dose-dependent, 48 hr
# [5] = test system: APC deficient cell lines; test: Crystal violet staining after 680C91 treatment, APC deficient cell lines; type: cell-based, human; conditions: 680C91 dose-dependent, 48 hr
# [6] = test system: APC-KO MC38 cells; test: Cell death (caspase-3 assay, colony formation) with 680C91 alone and 680C91/Kyn; type: cell-based, mouse
# Experimental: (§2) Normalized enrichment score (NES) and nominal P value are shown. […] The P value and R-square value are shown. […] Representative images of triplicate studies are shown. Scale bar, 100 μm. […] Dox food was applied at day 5 post-orthotopic injection to induce TDO2 knockdown in vivo (shControl, n=7, Dox, n=8, shAhR #1, #2, n=7). ***P<0.001. two-tailed t-test.
# (§3) To assess the roles of TDO2-Kyn-AhR axis in cancer relevant processes, colony formation assays were performed using the APC-KO MC38 ishTDO2 cell lines and APC-KO MC38 shAhR cell lines. […] Thus, the TDO2-Kyn-Ahr axis supports APC-null cancer cell proliferation and survival and its tumorigenic potential.
# as §1
# (§4) Colorectal cancer cell proliferation in vitro was assayed through colony formation. 1×10^3 cells were seeded in each well of 6-well plates and cultured for 5-7 days. At the end point, cells were fixed and stained with 0.5% crystal violet in 25% methanol for 1 hr. These studies were performed in triplicate.
# [7] = test system: APC intact cells including CCD-841-CoN cells; test: Crystal violet staining after 680C91 treatment, APC intact cells; type: cell-based, human; conditions: 680C91 dose-dependent, 48 hr, normal colon epithelial cells included
# [8] = biological target: T1, Axl (Mus musculus, UniProt Q00993); test: Immunoblots for Axl and phospho-Axl; type: cell-based; conditions: APC-WT and APC-KO MC38 cells; R428 0.2 μM 24 h; rmGAS6 24 h
# T1 construct: immunoblots for Axl and phospho-Axl in APC-WT and APC-KO MC38 cells after R428 treatment (0.2 μM, 24 h); endogenous in cells; host or cells: MC38 mouse colorectal cancer cells, APC-WT and isogenic APC-KO
# T1 sequence (Q00993 19-888): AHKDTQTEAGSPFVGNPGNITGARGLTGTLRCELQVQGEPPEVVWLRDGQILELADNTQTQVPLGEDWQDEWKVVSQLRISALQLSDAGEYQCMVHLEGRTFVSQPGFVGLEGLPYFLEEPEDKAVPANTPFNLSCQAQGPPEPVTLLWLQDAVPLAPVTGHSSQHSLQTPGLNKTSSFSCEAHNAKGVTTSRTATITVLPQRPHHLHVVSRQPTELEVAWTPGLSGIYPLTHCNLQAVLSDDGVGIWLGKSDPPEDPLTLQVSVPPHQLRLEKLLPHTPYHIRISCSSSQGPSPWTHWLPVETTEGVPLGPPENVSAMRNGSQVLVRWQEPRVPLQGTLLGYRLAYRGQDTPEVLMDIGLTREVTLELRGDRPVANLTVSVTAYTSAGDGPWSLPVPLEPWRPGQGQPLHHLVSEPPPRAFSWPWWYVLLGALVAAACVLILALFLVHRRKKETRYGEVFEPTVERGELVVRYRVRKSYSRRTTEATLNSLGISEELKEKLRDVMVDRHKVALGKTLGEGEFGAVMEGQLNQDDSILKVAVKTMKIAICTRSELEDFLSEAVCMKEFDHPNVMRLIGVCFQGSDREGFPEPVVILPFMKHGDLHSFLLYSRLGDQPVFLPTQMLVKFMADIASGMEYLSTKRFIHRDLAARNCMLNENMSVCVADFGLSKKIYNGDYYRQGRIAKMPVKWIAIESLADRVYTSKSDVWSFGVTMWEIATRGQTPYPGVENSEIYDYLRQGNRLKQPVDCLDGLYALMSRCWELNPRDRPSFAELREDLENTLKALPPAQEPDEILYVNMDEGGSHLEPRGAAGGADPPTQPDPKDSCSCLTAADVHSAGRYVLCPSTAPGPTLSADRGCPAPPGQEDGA
# Excerpt: (§5) The red box indicates Axl. […] Six replicates per group. two-tailed t-test. *P<0.05. […] Epithelial cells are stained with EpCam and indicated by GFP. X63 magnification. […] Total flux measurement of at the end point. **P<0.01. two-tailed t-test. […] Total flux measurement of tumors was done at the end point. **P<0.01. two-tailed t-test.
# (§6) Gas6 is a ligand of Axl and is secreted mainly by tumor-associated macrophages in the TME (Loges et al., 2010), raising the possibility that macrophage-derived Gas6 might activate Axl to support the growth of APC-deficient cancer cells.
# as §1
# [9] = test system: LS180 and HT-29 cell lines; test: Colony formation assay with Gas6 and R428; type: cell-based, human; conditions: Gas6 25 ng, 36 hr
# Excerpt: as §5, §6, §4
# [10] = test system: BMDM; test: RT-qPCR analysis of Gas6 expression in BMDM; type: cell-based, mouse; conditions: Kyn 1 mM, CXCL5 50 ng, Gas6 25 ng, 24 hr
# Experimental: as §5
# To evaluate whether secreted factors from cancer cells might upregulate Gas6 expression in macrophages, BMDMs were incubated with conditioned media from MC38 cell lines. […] (FIG. 15H). Finally, to validate the roles of Gas6 in promoting tumor growth in vivo, CT26 cell lines and two independent Raw 264.7 shGas6 cell lines were co-injected into syngeneic Balb/CJ mice (FIG. 15I).
# (§7) RNA was isolated from cells using Trizol (Invitrogen) following the manufacturer's instructions. RNA (200-500 ng) was first treated with RNase-free DNase I using the DNA-free kit (Ambion) to remove all genomic DNA, and then reverse-transcribed into cDNA using an ABI High Capacity cDNA RT Kit (Invitrogen). The cDNA was analyzed using real-time quantitative PCR (SYBR Green, Invitrogen) with an Applied Biosystems 7900 Sequence Detection System. Each reaction was performed in triplicate. The expression of each gene was normalized by that of mouse Actin or human GAPDH.
# [11] = test system: APC-WT MC38 orthotopic tumors; test: Survival of C57BL/6J mice orthotopically implanted with APC-WT MC38 cells; type: in vivo, mouse; conditions: 100 mg/kg twice a day by oral gavage from day 5 post-injection
# Excerpt: (§8) Induction of shTDO2 is indicated by GFP (highlighted with arrows). X63 magnification. […] Dox food was provided at day 5 after injection to induced TDO2 knockdown in vivo (n=5 per group). […] Scale bar, 100μm. […] Dox food was applied at day 5 post-orthotopic injection to induce TDO2 knockdown in vivo (ishTDO2 APC-WT MC38, n=5, ishTDO2 APC-WT+Dox MC38 and ishTDO2 APC-KO MC38, n=6, ishTDO2 APC-KO MC38+Dox, n=7). n.s.P>0.05, **P<0.01, ***P<0.001. two-tailed t-test. […] Dox food was applied at day 5 post-orthotopic injection to induce TDO2 knockdown in vivo (n=8 per group). n.s.P>0.05, **P<0.01, ***P<0.001. two-tailed t-test. FIGS. 4N and 4O show survival curves of C57BL/6J mice orthotopically implanted with APC-WT and APC-KO MC38 cell lines ([…]) treated with TDO2 inhibitor (FIG. 4N) or Epacadostat (FIG. 4O). TDO2 inhibitor and Epacadostat treatment (100 mg/kg) was initiated at day 5 post-injection twice a day by oral gavage. n.s.P>0.05, *P<0.05, ***P<0.001. Log-rank (Mantel-Cox) test. […] Scale bars, ×10 (200 μm).
# (§9) The inventors synthesized the TDO2 inhibitor PF06845102/EOS200809 (“TDO2i”), which has been documented to inhibit TDO2 activity in vivo (Schramme et al., Cancer Immunol Res. 2020 January; 8(1):32-45; incorporated herein by reference in its entirety) and administrated the drug by oral gavage to mice bearing APC-WT or APC-KO MC38 orthotopic tumors. […]
# [12] = test system: APC-KO MC38 orthotopic tumors; test: Survival of C57BL/6J mice orthotopically implanted with APC-KO MC38 cells; type: in vivo, mouse; conditions: 100 mg/kg twice a day by oral gavage from day 5 post-injection
# Excerpt: as §8, §9
# [13] = test system: APC-KO MC38 cells; test: Colony formation assay of TDO2- or AhR-depleted cells with Kyn; type: cell-based, mouse; conditions: Dox/Kyn co-treatment
# Experimental: as §2, §3, §4
# [14] = test system: iKAP cell lysates; test: Cleaved Caspase-3 immunoblot in iKAP cells, 680C91 alone and 680C91/Kyn; type: cell-based, mouse; conditions: 680C91/Kyn vs 680C91 alone
# Experimental: as §2, §3, §1
# [15] = test system: BMDM; test: RT-qPCR of M2 macrophage signature genes in BMDM; type: cell-based, mouse; conditions: CXCL5 50 ng, Kyn 1 mM, 24 hr
# Experimental: Scale bars, 50μm. […] Scale bars, 100 μm. […] (isTDO2 and isTDO2/shCXCL5 #2 groups, n=7, isTDO2/shCXCL5 #3, n=8). ****P<0.0001. two-tailed t-test. […] (shControl and shCXCL5 #2 groups, n=7, shCXCL5 #3, n=8). ****P<0.0001. two-tailed t-test.
# as §7
molecule,measurement,setting,value
CC(C)(C)c1ccc(S(=O)(=O)NCc2ccc(C(=O)Nc3cccnc3)cc2)cc1 [STF-31],sensitivity of APC-KO vs APC-WT MC38 cells,[1],higher sensitivity
Oc1nc(-c2ccc(C(F)(F)F)cc2)nc2c1CSCC2 [XAV-939],TDO2 expression,[2],TDO2 expression was decreased
O=C(Nc1ccc(F)cc1)c1cnc(SCc2cc(OC(F)(F)F)ccc2B(O)O)nc1 [CXCR1/2 inhibitor],effect on CXCL5 rescue of macrophage recruitment,[3],abrogated the rescue by CXCL5 supplementation
Fc1ccc2c(/C=C/c3cccnc3)c[nH]c2c1 [680C91],sensitivity of APC depleted cells to TDO2 inhibition,[4],higher sensitivity to TDO2 inhibition
same,growth and survival,[5],impaired the growth and survival
same,cell death indicated by caspase-3 assay,[6]; 680C91 alone,increased cell death
same,growth and survival,[7],but not APC intact cells
"rmGas6: mouse recombinant Gas6, ligand of Axl",Axl phosphorylation,[8],activated Axl
same,cancer cell growth in vitro,[9],promoted cancer cell growth
same,Gas6 expression,[10],increased Gas6 expression
NS(=O)(=O)NCCNc1nonc1C(=NO)Nc1ccc(F)c(Br)c1 [Epacadostat],survival of mice bearing APC-WT MC38 tumors,[11],did not exhibit anti-tumor effects
same,survival of mice bearing APC-KO MC38 tumors,[12],did not exhibit anti-tumor effects
"Nc1ccccc1C(=O)CC(N)C(=O)O (centres unmarked) [Kyn, kynurenine]",effect of Kyn on reduced colony formation after TDO2 and AhR depletion,[13],rescued by Kyn treatment
same,effect of Kyn on 680C91-induced cell death,[6]; 680C91/Kyn co-treatment,rescued by Kyn supplementation
same,cell death in iKAP model system,[14],decreased cell death
same,Gas6 expression,[10],increased Gas6 expression
same,M2 macrophage markers,[15],M2 macrophage markers increased
